Experimental data as given in PMC10166890, “Screening for DAX1/EWS‐FLI1 functional inhibitors identified dihydroorotate dehydrogenase as a therapeutic target for Ewing's sarcoma” (Cancer Medicine, 2023).
pIC50: −log10 of the molar value. Entries after “also recorded” stand apart in the source; their conditions may differ. Like-named read-outs stand apart in the source and are kept apart here.

Tests used:
DAX1 = DAX1 reporter assay (KJMGER8/pAGal9p4‐hDAX1 cells, luciferase); type: cell-based, human; conditions: for pIC50: Homo sapiens; for Inhibitory effect on DAX1 reporter activity: overnight treatment
Protocol: pAGal9‐hDAX1 and pAPPRE×10‐Luc + were transfected into KJMGER8 cells by electroporation using a Gene Pulser (Bio‐Rad Laboratories, Hercules, CA, USA), and clones stably expressing the DAX1 and luciferase reporter genes under the control of PPRE were selected. The obtained clone was termed KJMGER8/pAGal9p4‐hDAX1. KJMGER8/pAGal9p4‐hDAX1 cells (1.8 × 10^4 cells/well) were seeded in 384‐well white plates (Greiner Japan, Tokyo, Japan) and cultured in RPMI1640‐IPTSG medium containing 10 nM 17β‐estradiol (E2; Sigma‐Aldrich), dissolved in ethanol, with test compounds at concentration ranges of 0.01 to 10,000 nM or vehicle (dimethyl sulfoxide [DMSO]). The final DMSO concentration was ≤0.3%, and the ethanol concentration was 0.1%. The next day, Blight‐Glo Luciferase Assay Reagent (Promega, Madison, WI, USA) was added to the medium. The luciferase activity was measured using a TopCount NXT system (PerkinElmer, Waltham, MA, USA). IC50 values were calculated using XLfit version 4 (ID Business Solutions, Surrey, UK).
A DAX1 reporter assay system was constructed with the estrogen‐inducible Namalwa cell (KJMGER8 cell) by co‐transfection with pAGal9‐hDAX1 and pAPPRE×10‐Luc+.[18] In the obtained cell line KJMGER8/pAGal9p4‐hDAX1, DAX1 expression is induced by E2 treatment, and the expressed DAX1 increases luciferase expression. Reporter activity was increased by E2 treatment as expected (Figure S2). […] Using this DAX1 reporter assay system, small‐molecule compounds in an in‐house library were screened to obtain DAX1 inhibitors, and K‐234 was identified (Figure 1).
pAGal9-hDAX1 and pAPPRE×10-Luc+ were transfected into KJMGER8 cells by electroporation using a Gene Pulser (Bio-Rad Laboratories, Hercules, CA, USA), and clones stably expressing the DAX1 and luciferase reporter genes under the control of PPRE were selected. The obtained clone was termed KJMGER8/pAGal9p4-hDAX1. KJMGER8/pAGal9p4-hDAX1 cells (1.8×10^4 cells/well) were seeded in 384-well white plates (Greiner Japan, Tokyo, Japan) and cultured in RPMI1640-IPTSG medium containing 10 nM 17β-estradiol (E2; Sigma-Aldrich), dissolved in ethanol, with test compounds at concentration ranges of 0.01 to 10000 nM or vehicle (dimethyl sulfoxide [DMSO]). The final DMSO concentration was ≤0.3%, and the ethanol concentration was 0.1%. The next day, Blight-Glo Luciferase Assay Reagent (Promega, Madison, WI, USA) was added to the medium. The luciferase activity was measured using a TopCount NXT system (PerkinElmer, Waltham, MA, USA). IC50 values were calculated using XLfit version 4 (ID Business Solutions, Surrey, UK)

A‐673 cells = experiment: Cell viability assay (XTT), A‐673 cells; type: cell-based, human; conditions: for GI50: Homo sapiens, A673; for Effect of DHODH overexpression on cell growth inhibitory effect in A‐673 cells: pcDNA3.1hygro(+)‐hDHODH transfected
Protocol: (§1) AsPC‐1, A‐673, and TC‐71 cells were seeded in 96‐well plates (800 cells/well for AsPC‐1, 2000 cells/well for A‐673, and 400 cells/well for TC‐71) and cultured overnight. Vehicle (DMSO) or a test compound diluted with the medium was then added to the wells (final DMSO concentration was 0.3%), and 72 h later, 2,3‐bis[2‐methoxy‐4‐nitro‐5‐sulfophenynl]‐2H‐tetrazolium‐5‐carboxanilide inner salt (XTT) reagent (Roche Diagnostics, Mannheim, Germany) was added to the medium. After 3‐h incubation at 37°C, the formation of the formazan dye was determined by measuring absorbance at 490 and 650 nm using a SpectraMax 340PC system (Molecular Devices, Sunnyvale, CA, USA).

DHODH [1] = target: T1, DHODH (Rattus norvegicus, UniProt Q63707); experiment: DHODH inhibition with rat liver mitochondria; type: biochemical
T1 construct: from tissue; host or cells: rat liver mitochondria
T1 sequence (Q63707 whole entry): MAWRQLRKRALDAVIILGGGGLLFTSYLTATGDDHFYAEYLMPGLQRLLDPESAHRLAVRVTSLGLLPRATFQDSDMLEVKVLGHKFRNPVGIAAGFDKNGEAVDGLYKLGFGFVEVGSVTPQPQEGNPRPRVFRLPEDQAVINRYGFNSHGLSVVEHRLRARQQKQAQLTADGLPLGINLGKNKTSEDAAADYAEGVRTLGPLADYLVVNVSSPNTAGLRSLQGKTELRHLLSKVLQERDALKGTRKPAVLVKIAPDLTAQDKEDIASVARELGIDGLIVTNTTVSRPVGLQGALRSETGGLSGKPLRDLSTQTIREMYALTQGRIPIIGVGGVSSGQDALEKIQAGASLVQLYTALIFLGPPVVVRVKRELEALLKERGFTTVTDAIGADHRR

EWS‐FLI1‐related genes = experiment: EWS‐FLI1‐related gene expression in A‐673 cells (RT‐qPCR); type: cell-based, human; conditions: 48 h; for Expression of DAX1, IGFBP3, and DKK1 in A‐673 cells / Effect of uridine addition on up‐regulation of DAX1, IGFBP3, and DKK1: 1000 nmol/L; for Effect of uridine addition on up‐regulation of DAX1, IGFBP3, and DKK1: uridine 100 μM
Protocol: Total RNA was extracted using the RNeasy Plus Mini kit (Qiagen, Valencia, CA, USA) according to the manufacturer's protocol. cDNA was synthesized from 1 μg of total RNA using a SuperScript VILO cDNA synthesis kit (Thermo Fisher Scientific). Real‐time PCR was carried out using TaqMan Fast Universal PCR Master Mix (Thermo Fisher Scientific).
FIGURE 3 EWS‐FLI1‐related gene expression after treatment with DAX1 inhibitors and knockdown of FLI1 in A‐673 cells. (A) A‐673 cells were treated with siRNA of FLI1 (siFLI‐1, siFLI‐2) or control siRNA (control siRNA1, control siRNA2) for 24 h, and EWS‐FLI1‐related genes were analyzed (details of siRNA are shown in Table S2). The gene expression was normalized by the GAPDH expression and normalized by the mean of control siRNA‐treated samples. Each bar represents the mean of duplicate measurements. (B) A‐673 cells were treated with PTC299 at 1000 nM for 48 h, and EWS‐FLI1‐related genes were analyzed. Gene expression was normalized by the GAPDH expression and by DMSO‐treated samples. Each bar represents the mean of duplicate measurements.
FIGURE 6 Influence of DHODH overexpression on Ewing's sarcoma cell growth and the EWS‐FLI1‐regulated gene expression. (A) pcDNA3.1hygro(+)‐hDHODH was transfected into A‐673 cells. The A‐673 cells with DHODH or control A‐673 cells were treated with indicated concentrations of PTC299 and KF20444 for 72 h, and cell viability was measured. Each plot represents the mean of triplicate measurements. (B) A‐673 cells with or without uridine (100 μM) were treated with indicated concentrations of PTC299 for 72 h, and cell viability was measured. Each plot represents the mean of triplicate measurements. (C) A‐673 cells with or without uridine (100 μM) were treated with PTC299 and KF20444 at 1000 nmol/L for 48 h, and the EWS‐FLI1‐related gene expression was evaluated. The expression was normalized by GAPDH and by DMSO‐treated samples. (D) KJMGER8/pAGal9p4‐hDAX1 cells with or without uridine (100 μM) were treated with indicated concentrations of PTC299 and K‐733 overnight, and the luciferase activity was measured. Each plot represents the mean of quadruplicate measurements.

DHODH [2] = target: T2, DHODH (Homo sapiens, UniProt Q02127); experiment: DHODH inhibition assay, A‐673 mitochondria fraction (orotic acid production, LCMSMS); type: biochemical
T2 construct: The mitochondria fraction was isolated from A‐673 cells using Q proteome Mitochondria Isolation kit; endogenous in cells; host or cells: A-673 cells, mitochondria fraction
T2 sequence (Q02127 whole entry): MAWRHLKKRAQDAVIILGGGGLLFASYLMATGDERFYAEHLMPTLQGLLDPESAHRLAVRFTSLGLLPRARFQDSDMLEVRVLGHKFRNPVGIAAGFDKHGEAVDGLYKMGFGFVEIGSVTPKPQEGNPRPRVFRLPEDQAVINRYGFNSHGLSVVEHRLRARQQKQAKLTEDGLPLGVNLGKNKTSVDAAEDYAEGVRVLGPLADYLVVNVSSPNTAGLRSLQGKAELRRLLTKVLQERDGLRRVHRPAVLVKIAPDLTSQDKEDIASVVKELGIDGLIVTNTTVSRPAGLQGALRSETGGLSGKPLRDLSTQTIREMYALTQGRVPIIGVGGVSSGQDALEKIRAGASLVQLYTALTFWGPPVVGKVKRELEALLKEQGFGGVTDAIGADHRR
Protocol: The mitochondria fraction was isolated from A‐673 cells using Q proteome Mitochondria Isolation kit (QIAGEN, Hilden, Germany). The protein concentration of the fraction was determined using the DC‐protein assay kit (Bio‐Rad Laboratories, Hercules, CA, USA) with bovine serum albumin (Sigma‐Aldrich) as the standard. […] The reaction was quenched by adding 120 μL of 3 μM 5‐fluoroorotic acid acetonitrile solution. These samples were then centrifuged at 5000 g for 5 min to precipitate proteins, and the supernatant was collected. The samples were diluted 10‐fold with 70% acetonitrile‐water and subjected to liquid chromatography with tandem mass spectrometry (LCMSMS). The analyte was then separated on a hydrophilic interaction chromatography column (PC‐HILIC; 5 μm, 4.6 mm I.D. × 50 mm; Osaka Soda, Osaka, Japan). LCMSMS detection was performed by electrospray ionization in negative ion mode.

DHODH [3] = target: T3, DHODH (Mus musculus, UniProt O35435); experiment: DHODH inhibition with mouse liver mitochondria; type: biochemical; conditions: mouse liver mitochondria; read-out: DHODH IC50 Mouse
T3 construct: IC50 value for the mouse liver mitochondrial fraction; from tissue; host or cells: mouse liver mitochondria
T3 sequence (O35435 whole entry): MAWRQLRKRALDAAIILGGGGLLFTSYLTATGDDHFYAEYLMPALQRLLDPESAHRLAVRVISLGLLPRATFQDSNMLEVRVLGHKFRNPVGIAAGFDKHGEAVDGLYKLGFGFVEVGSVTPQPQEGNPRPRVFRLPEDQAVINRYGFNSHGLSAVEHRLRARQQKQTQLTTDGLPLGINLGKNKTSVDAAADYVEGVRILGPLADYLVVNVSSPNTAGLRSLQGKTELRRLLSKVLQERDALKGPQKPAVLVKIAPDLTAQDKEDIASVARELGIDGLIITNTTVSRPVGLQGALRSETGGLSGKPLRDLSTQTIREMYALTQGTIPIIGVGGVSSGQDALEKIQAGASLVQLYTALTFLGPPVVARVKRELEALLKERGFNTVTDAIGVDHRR

SK‐ES‐1 cells = experiment: Cell viability, SK‐ES‐1 cells; type: cell-based, human; conditions: 120 h, type 2 fusion
Protocol: (§2) FIGURE 2 K‐234 influences the growth of Ewing's sarcoma. (A) Ewing's sarcoma‐derived A‐673 and TC‐71 cells and human pancreas adenocarcinoma‐derived AsPC‐1 cells as a control were treated with indicated concentrations of K‐234 for 72 h, and cell viability was measured. Each value represents the mean of duplicate measurements. (B) Ewing's sarcoma with type 2‐fusion gene‐derived SK‐ES‐1, RD‐ES, and MHH‐ES‐1 cells and Ewing's sarcoma with EWS‐ERG fusion gene‐derived CADO‐ES1 cells were treated with indicated concentrations of K‐234 for 120 h, and cell viability was measured. Each value represents the mean of duplicate measurements.

TC‐71 cells = experiment: Cell viability assay (XTT), TC‐71 cells; type: cell-based, human; conditions: 72 h
Protocol: as §1

MHH‐ES‐1 cells = experiment: Cell viability, MHH‐ES‐1 cells; type: cell-based, human; conditions: 120 h, type 2 fusion
Protocol: as §2

CADO‐ES1 cells = experiment: Cell viability, CADO‐ES1 cells; type: cell-based, human; conditions: 120 h, EWS‐ERG fusion
Protocol: as §2

RD‐ES cells = experiment: Cell viability, RD‐ES cells; type: cell-based, human; conditions: 120 h, type 2 fusion
Protocol: as §2

[4] = KJMGER8, Table S3, read-out: DAX1 reporter IC50
[5] = 50% growth inhibition concentration, A‐673 cells
[6] = KJMGER8/pAGal9p4‐hDAX1 cells, 10 nM E2, overnight, read-out: IC50 for inhibition of DAX1 reporter activity

Cc1c(-c2ccc(-c3ccccc3F)cc2)nc2ccc(F)cc2c1C(=O)O [Brequinar]
pIC50 (DAX1; [4]): 7.14
GI50 (A‐673 cells; [5]): 115 nM

O=C(O)c1c2c(nc3ccc(F)cc13)-c1ccc(-c3ccccc3F)cc1CCC2 [KF20444]
pIC50 (DHODH [1]): 7.47
Expression of DAX1, IGFBP3, and DKK1 in A‐673 cells (EWS‐FLI1‐related genes): up‐regulated
Effect of uridine addition on up‐regulation of DAX1, IGFBP3, and DKK1 (EWS‐FLI1‐related genes): abrogated
pIC50 (DAX1; [4]): 7.88
Cell viability of A‐673 cells (A‐673 cells; 72 h): reduced the cell viability
Effect of DHODH overexpression on cell growth inhibitory effect in A‐673 cells (A‐673 cells; 72 h): weakened; also recorded: partially attenuated
GI50 (A‐673 cells; [5]): 22.2 nM
pIC50 (DHODH [2]; Table S3, read-out: DHODH IC50): 7.77
pIC50 (DHODH [3]): 8.21

O=C(Oc1ccccc1)N1CCc2c([nH]c3ccc(Cl)cc23)C1c1ccc(Cl)cc1 (stereo not drawn) [K‐234, phenyl 6‐chloro‐1‐(4‐chlorophenyl)‐1,3,4, 9‐tetrahydro‐2H‐pyrido[3,4‐b]indole‐2‐carboxylate]
Cell viability of SK‐ES‐1 cells (SK‐ES‐1 cells): significantly reduced the viability
Cell viability of TC‐71 cells (TC‐71 cells): significantly reduced the viability
pIC50 (DAX1; [6]): 7.02
Cell viability of MHH‐ES‐1 cells (MHH‐ES‐1 cells): significantly reduced the viability
Cell viability of A‐673 cells (A‐673 cells; 72 h): significantly reduced the viability
Cell viability of CADO‐ES1 cells (CADO‐ES1 cells): significantly reduced the viability
Cell viability of RD‐ES cells (RD‐ES cells): significantly reduced the viability

CC(=O)N1CCc2c([nH]c3ccc(Br)cc23)C1c1ccccc1 (stereo not drawn) [NSC 665564]
pIC50 (DAX1; [4]): 6.18
GI50 (A‐673 cells; [5]): 119 nM
pIC50 (DHODH [2]; Table S3, read-out: DHODH IC50): 8.46

COc1ccc([C@H]2c3[nH]c4ccc(Cl)cc4c3CCN2C(=O)Oc2ccc(Cl)cc2)cc1 [PTC299, 4‐chlorophenyl (S)‐6‐chloro‐1‐(4‐methoxyphenyl)‐1,3,4,9‐tetrahydro‐2H‐pyrido[3,4‐b]indole‐2‐carboxylate]
pIC50 (DHODH [1]): 5.82
DAX1 expression in A‐673 cells (EWS‐FLI1‐related genes; 1000 nM): slightly induced
Expression of DAX1, IGFBP3, and DKK1 in A‐673 cells (EWS‐FLI1‐related genes): up‐regulated
Effect of uridine addition on up‐regulation of DAX1, IGFBP3, and DKK1 (EWS‐FLI1‐related genes): abrogated
Cell viability of TC‐71 cells (TC‐71 cells): decreased the viability
pIC50 (DAX1; [6]): 7.48
Effect of uridine addition on inhibition of DAX1 reporter activity (DAX1; uridine 100 μM, overnight): completely abrogated
Cell viability of A‐673 cells (A‐673 cells; 72 h): decreased the viability
Effect of knockdown and overexpression of DAX1 on the reduction in viability of A‐673 cells (A‐673 cells; 72 h): no marked effect
Effect of DHODH overexpression on cell growth inhibitory effect in A‐673 cells (A‐673 cells; 72 h): significantly attenuated; also recorded: completely canceled
GI50 (A‐673 cells; [5]): 5.11 nM
Effect of uridine addition on growth inhibitory effect in A‐673 cells (A‐673 cells; uridine 100 μM, 72 h): completely blocked; also recorded: completely canceled
pIC50 (DHODH [2]; read-out: IC50 for orotic acid production through DHODH): 8.38
pIC50 (DHODH [3]): 6.99

CC(=O)O[C@H]1C(=O)[C@@]2(C)[C@H]([C@H](OC(=O)c3ccccc3)[C@]3(O)C[C@H](OC(=O)[C@H](O)[C@@H](NC(=O)c4ccccc4)c4ccccc4)C(C)=C1C3(C)C)[C@]1(OC(C)=O)CO[C@@H]1C[C@@H]2O [Paclitaxel]
Inhibitory effect on DAX1 reporter activity (DAX1): did not inhibit
Inhibitory effect on DAX1 reporter activity (DAX1; listed as paclitaxel): did not show a remarkable inhibitory effect

C/C(O)=C(\C#N)C(=O)Nc1ccc(C(F)(F)F)cc1 [Teriflunomide]
pIC50 (DAX1; [4]): 5.07
GI50 (A‐673 cells; Figure 7 legend): > 10000 nM
